Experimental findings from patent publication US12662507B2, “Cytosine-type bridged nucleoside amidite crystals and method for producing same” (Yamasa Corporation, priority 2020, dated 2026) are described below.

This data set in a line: Stability test: storage at 50° C. in tightly sealed glass vial, HPLC purity. It is filed as physicochemical. As to the method:
As used herein, the term “decomposition degree” is defined as a value obtained by subtracting a […] when the stability test is performed for a certain period of time under the following conditions. The purity can be determined by HPLC. A higher decomposition degree means that the decomposition progressed and the purity decreased.
• Temperature: 50° C.; • Storage conditions: 20 mg of crystal is placed in a glass vial and stored in a tightly sealed state; (HPLC Conditions) • Column: YMC-Triart C18, 150×4.6 mm I.D. (manufactured by YMC); • Eluent: 5 mM triethylammonium acetate (pH 7.0) containing 80 vol % acetonitrile; and • Detection method: detection by UV 280 nm.
• Temperature: 50° C.; • Storage conditions: 20 mg of each of crystals A to C or amorphous form was placed in a glass vial and stored in a tightly sealed state; and • Sampling time: after 1, 2, 3, 4, 6, and 20 (days), each specimen was sampled and subjected to HPLC analysis; (HPLC Conditions) • Column: YMC-Triart C18, 150×4.6 mm I.D. (manufactured by YMC) • Eluent: 5 mM triethylammonium acetate (pH 7.0) containing 80 vol % acetonitrile; and • Detection method: detection by UV 280 nm.
The leftmost column in the table indicates the number of elapsed days, and the column “Example 1 (Crystal A)” indicates the HPLC purity of the crystal A of the 5-methylcytosine-type bridged nucleoside amidite obtained in Example 1 (R^1=a benzamido group, R^2=a methyl group, R^3=a dimethoxytrityl group) after the corresponding number of elapsed days, and the column “Example 2 (crystal B)” indicates the HPLC purity of the crystal B of the 5-methylcytosine-type bridged nucleoside amidite obtained in Example 2 (R^1=a benzamido group, R^2=a methyl group, R^3=a dimethoxytrityl group) after the corresponding number of elapsed days, and the column “Example 3 (Crystal C) indicates the HPLC purity of the crystal C of 5-methylcytosine-type bridged nucleoside amidite obtained in Example 3 (R^1=a benzamido group, R^2=a methyl group, R^3=a dimethoxytrityl group) after the corresponding number of elapsed days, and the column “Control” indicates the HPLC purity of the amorphous form used as a control after the corresponding number of elapsed days. In the table, the cells marked by “-” indicate that no measurement was performed.

Setting [1] is: HPLC purity on day 0 minus HPLC purity after 20 days at 50° C.
Where [2] appears, read: after 1 day at 50° C., sealed glass vial.
Setting [3] is: after 2 days at 50° C., sealed glass vial.
Setting [4] is: after 3 days at 50° C., sealed glass vial.
Setting [5] is: after 6 days at 50° C., sealed glass vial.
Where [6] appears, read: after 20 days at 50° C., sealed glass vial.
Where [7] appears, read: day 0 (start of stability test at 50° C.).
[8] abbreviates: after 4 days at 50° C., sealed glass vial.

The structures appear in SMILES notation.

In the case of `COc1ccc(C(OCC23COC(C(n4cc(C)c(NC(=O)c5ccccc5)nc4=O)O2)C3OP(OCCC#N)N(C(C)C)C(C)C)(c2ccccc2)c2ccc(OC)cc2)cc1` (centres unmarked) [Control, N^4-benzoyl-5′-O-(4,4′-dimethoxytrityl)-2′-O-4′-C-methylene-5-methylcytidine-3′-O—[O-(2-cyanoethyl)-N,N-diisopropylphosphoramidite], reference compound], the “Decomposition Degree” value by setting is: under setting [1], 6.6 Δ %; (stored at 50° C. for 20 days, in HPLC purity) 6.6%. Moreover, the HPLC purity by setting is: under setting [2], 98.2%; under setting [3], 97.9%; under setting [4], 97.9%; under setting [5], 96.9%; under setting [6], 92.1%; under setting [7], 98.7%.

Regarding `COc1ccc(C(OCC23COC(C(n4cc(C)c(NC(=O)c5ccccc5)nc4=O)O2)C3OP(OCCC#N)N(C(C)C)C(C)C)(c2ccccc2)c2ccc(OC)cc2)cc1` (centres unmarked) [Example 1, N^4-benzoyl-5′-O-(4,4′-dimethoxytrityl)-2′-O-4′-C-methylene-5-methylcytidine-3′-O—[O-(2-cyanoethyl)-N,N-diisopropylphosphoramidite]], under setting [1], the “Decomposition Degree” value is on record as 0.7 Δ %. Also, the HPLC purity reads like this: under setting [2], 98.4%; under setting [3], 98.1%; under setting [4], 98.3%; under setting [5], 98.1%; under setting [6], 98.1%; under setting [7], 98.8%.

`COc1ccc(C(OCC23COC(C(n4cc(C)c(NC(=O)c5ccccc5)nc4=O)O2)C3OP(OCCC#N)N(C(C)C)C(C)C)(c2ccccc2)c2ccc(OC)cc2)cc1` (centres unmarked) [Example 3, N^4-benzoyl-5′-O-(4,4′-dimethoxytrityl)-2′-O-4′-C-methylene-5-methylcytidine-3′-O—[O-(2-cyanoethyl)-N,N-diisopropylphosphoramidite]]: under setting [1], the “Decomposition Degree” value is given as 0.5 Δ %. The HPLC purity was 98.7% under setting [2]; 98.6% under setting [3]; 98.5% under setting [8]; 98.5% under setting [5]; 98.1% under setting [6]; 98.6% under setting [7].

With `COc1ccc(C(OCC23COC(C(n4cc(C)c(NC(=O)c5ccccc5)nc4=O)O2)C3OP(OCCC#N)N(C(C)C)C(C)C)(c2ccccc2)c2ccc(OC)cc2)cc1` (centres unmarked) [Example 2, N^4-benzoyl-5′-O-(4,4′-dimethoxytrityl)-2′-O-4′-C-methylene-5-methylcytidine-3′-O—[O-(2-cyanoethyl)-N,N-diisopropylphosphoramidite]], under setting [1], the “Decomposition Degree” value was 0.4 Δ %. Further, the HPLC purity reads like this: under setting [2], 98.7%; under setting [3], 98.6%; under setting [8], 98.6%; under setting [5], 98.5%; under setting [6], 98.3%; under setting [7], 98.7%.
